Results on 12 molecules are retold here after PubChem BioAssay (NCI).

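1) Cells in 96-well plates. 2) Compound, 48 h, 5 concentrations. 3) Linear interpolation between surrounding doses. 4) Unreached endpoint = highest concentration. TGI is the concentration that stops growth completely.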

Some test systems named below: SF-295 CNS; HOP-62 NSCLC; MDA-MB-435; SK-MEL-2 melanoma; OVCAR-5 ovarian; MALME-3M melanoma; CCRF-CEM leukemia; SF-268 CNS; 786-0 renal; EKVX NSCLC; M14 melanoma; SNB-75 CNS.
Common to all, as to assay: DTP human tumour cell line panel, 48 h

In the case of `O=[N+]([O-])/C(C(Cl)=C(Cl)Cl)=C1\NCCO1`, the TGI with SF-295 CNS, in the experiment on HOP-62 NSCLC, in the experiment on MDA-MB-435, in the experiment with SK-MEL-2 melanoma, with OVCAR-5 ovarian and with MALME-3M melanoma was above 100 µM in each case. The TGI (as a rule, the concentration at which net growth stops) was 66.7 µM in the experiment on CCRF-CEM leukemia; above 100 µM with SF-268 CNS; above 100 µM in the experiment with 786-0 renal; above 100 µM in the experiment on EKVX NSCLC; above 100 µM with M14 melanoma.
With `CCC1C(c2cccc(OC)c2O)c2cc3c(cc2OC1N1CCCC1)OCO3` (centres undefined), the TGI was 50.8 µM in the experiment on SF-295 CNS; 46.3 µM with HOP-62 NSCLC; 15.9 µM in the experiment on MDA-MB-435; 92.4 µM in the experiment on SNB-75 CNS; 43.5 µM with SK-MEL-2 melanoma; 76.9 µM with OVCAR-5 ovarian. Moreover, the TGI was 46.7 µM with CCRF-CEM leukemia; 58.9 µM in the experiment on SF-268 CNS; 41.2 µM with 786-0 renal; above 100 µM in the experiment with EKVX NSCLC; 23.9 µM in the experiment with M14 melanoma.
On to `COC1=C(N=[N+]=[N-])C(=O)c2ncccc2C1=O`, for which the TGI in the experiment on SF-295 CNS stood at 29 µM; in the experiment on HOP-62 NSCLC it was 29.4 µM; with MDA-MB-435, 4.41 µM; with SNB-75 CNS, 26 µM; in the experiment with SK-MEL-2 melanoma, 37.5 µM; in the experiment on OVCAR-5 ovarian, 33.8 µM. For the same molecule, the total growth inhibition concentration (TGI) in the experiment on MALME-3M melanoma stood at 5.03 µM; with SF-268 CNS, 28.5 µM; in the experiment with 786-0 renal it was 16.3 µM; with EKVX NSCLC, 17.3 µM; in the experiment on M14 melanoma it was 8.66 µM.
Turning to `CCCCc1c(C(=O)OC(C)(C)C)cc(C#Cc2cc(C(=O)OC(C)(C)C)c(CCCC)c(C(=O)OC(C)(C)C)c2)cc1C(=O)OC(C)(C)C`, the total growth inhibition concentration (TGI) with SF-295 CNS, in the experiment on HOP-62 NSCLC, in the experiment with MDA-MB-435, in the experiment with SNB-75 CNS, in the experiment on SK-MEL-2 melanoma and in the experiment on OVCAR-5 ovarian was above 100 µM in each case. Besides, the TGI with MALME-3M melanoma, in the experiment on SF-268 CNS, with 786-0 renal, in the experiment on EKVX NSCLC and in the experiment with M14 melanoma was above 100 µM in each case.
For `CC(C)SC(C)(NC(=O)C1C(C)(C)CCC1(C)C)C(=O)O` (centres undefined), the total growth inhibition concentration (TGI) with HOP-62 NSCLC, in the experiment on MDA-MB-435, with SNB-75 CNS, in the experiment with SK-MEL-2 melanoma, in the experiment on OVCAR-5 ovarian and in the experiment with CCRF-CEM leukemia was above 100 µM throughout. The TGI in the experiment on SF-268 CNS, in the experiment on 786-0 renal, with EKVX NSCLC and with M14 melanoma was above 100 µM in each case.
For the molecule `O=C1CC(=O)c2c(O)cc(O)c(c2O)-c2c(ccc(O)c2O)C2=CC(=O)c3c(O)cc(O)c(c3O2)-c2c1ccc(O)c2O` (tested in a mixture with another compound), the total growth inhibition concentration (TGI) with SF-295 CNS, in the experiment on HOP-62 NSCLC, in the experiment on MDA-MB-435, in the experiment with SNB-75 CNS, with SK-MEL-2 melanoma and with OVCAR-5 ovarian was above 50 µM throughout. The TGI with MALME-3M melanoma, in the experiment with CCRF-CEM leukemia, with SF-268 CNS, in the experiment on EKVX NSCLC and with M14 melanoma was above 50 µM throughout.
Consider `O=C(NCCC(F)(F)C(F)(F)C(F)(F)C(F)(F)F)NC1OC(CO)C(O)C(O)C1O` (centres undefined), for which the concentration for total growth inhibition (TGI) in the experiment on SF-295 CNS, in the experiment on HOP-62 NSCLC, with MDA-MB-435, in the experiment with SNB-75 CNS, with SK-MEL-2 melanoma and with OVCAR-5 ovarian was above 100 µM each time. For the same molecule, the concentration for total growth inhibition (TGI) in the experiment on MALME-3M melanoma, in the experiment on CCRF-CEM leukemia, in the experiment with SF-268 CNS, in the experiment with 786-0 renal and in the experiment with M14 melanoma was above 100 µM throughout.
Consider `O=C(/C=C/c1cccc(Br)c1)c1cccs1`, for which the TGI came to 30.2 µM in the experiment on SF-295 CNS; 73.8 µM in the experiment with HOP-62 NSCLC; 25.5 µM with MDA-MB-435; 28.2 µM with SNB-75 CNS; 44.1 µM in the experiment on SK-MEL-2 melanoma; 41.6 µM in the experiment with MALME-3M melanoma. Further, the TGI in the experiment on CCRF-CEM leukemia amounted to 23.6 µM; with SF-268 CNS, 42.1 µM; in the experiment on 786-0 renal, 31.4 µM; in the experiment on EKVX NSCLC, 37.4 µM; in the experiment on M14 melanoma it was 51.1 µM.
Take `CC(=O)NCCC1CN(C(=O)/C=C\C#C[Si](C)(C)C)c2ccccc21` (centres undefined): the TGI in the experiment on SF-295 CNS is above 100 µM; in the experiment on MDA-MB-435, above 100 µM; with SK-MEL-2 melanoma it was 37.8 µM; in the experiment with OVCAR-5 ovarian, 33.7 µM; in the experiment on MALME-3M melanoma, 49.4 µM; in the experiment with CCRF-CEM leukemia, above 100 µM. For the same molecule, the TGI in the experiment on SF-268 CNS is above 100 µM; in the experiment with EKVX NSCLC, 37.5 µM; in the experiment with M14 melanoma it was 45.5 µM.
For `NCCCn1c2ccccc2c2c3c(c4c(c21)CCC(O)CC4)C(=O)NC3=O` (centres undefined), the TGI is 15.6 µM with SF-295 CNS; 15.9 µM in the experiment with HOP-62 NSCLC; 13.6 µM with MDA-MB-435; 24.1 µM with SK-MEL-2 melanoma; 15.5 µM with OVCAR-5 ovarian; 15.8 µM in the experiment with MALME-3M melanoma. The concentration for total growth inhibition (TGI) amounted to 10.4 µM with CCRF-CEM leukemia; 4.43 µM with SF-268 CNS; 16.8 µM in the experiment with 786-0 renal; 23.7 µM in the experiment with EKVX NSCLC; 18.2 µM in the experiment with M14 melanoma.
As to `CC(C)CCC[C@@H](C)[C@H]1CCC2C3CC=C4C[C@@H](Oc5c6ccccc6nc6ccccc56)CCC4C3CCC21` (some centres undefined), the TGI in the experiment on SF-295 CNS, with HOP-62 NSCLC, in the experiment with MDA-MB-435, in the experiment on SK-MEL-2 melanoma, in the experiment with OVCAR-5 ovarian and with MALME-3M melanoma was above 50 µM each time. In addition, the concentration for total growth inhibition (TGI) with CCRF-CEM leukemia, with SF-268 CNS, with 786-0 renal, with EKVX NSCLC and with M14 melanoma was above 50 µM in each case.
Regarding `Cc1cc(-c2[nH]c(C(=O)O)cc2I)on1`, the TGI in the experiment on SF-295 CNS, in the experiment with HOP-62 NSCLC, in the experiment on MDA-MB-435, with SNB-75 CNS, with SK-MEL-2 melanoma and with OVCAR-5 ovarian was above 100 µM each time. Moreover, the total growth inhibition concentration (TGI) in the experiment with MALME-3M melanoma, in the experiment on SF-268 CNS, in the experiment with 786-0 renal, with EKVX NSCLC and in the experiment on M14 melanoma was above 100 µM throughout.
